# In patent US20250195475A1, “CDK2 INHIBITOR AND PREPARATION METHOD AND USE THEREOF” (INVENTISBIO CO., LTD., priority 2022, published 2025):
# Molecular target: CDK2/CyclinE1 (Homo sapiens (Human), UniProt P24941)
# Experiment: CDK2 kinase assay (TR-FRET)
# Format: biochemical
# Details: CDK2/CyclinE1 0.5 nM, ATP 50 μM
# Method: The purpose of these assays is to evaluate the inhibition of small molecule inhibitors by using TR-FRET assay.
# Compound Preparation. Dissslove the compounds into DMSO solution to make 10 mM DMSO stock. Serially dilute the stock solution from highest concentration down to lowest in DMSO to make the compound stock plate (100× stock plates). To make 5× compound intermediate plate, add 38 μL of assay buffer (50 mM HEPES, pH 7.5, 0.05 mg/mL BSA, 10 mM MgCl2, 1 mM EGTA, 0.01% Tween-20, 2 mM DTT) into each well of the V-bottom plate; then transfer 2 μL of the stock compound solution of each concentration from the compound stock plate (100× stock), and mix well.
# Enzyme reaction. Transfer 2 μL compound from 5× intermediate plate into assay plate, then add 4 μL/well 2.5× Enzyme mix to assay plate, incubation for 10 min at room temperature. For positive control wells, add 4 μL/well assay buffer instead of Enzyme mix. Then add 4 μL/well 2.5× Substrate mix to assay plate, and incubation at 25° C. for 30 min at room temperature. After reaction, 10 μL 2× Detection mix (final 15 mM EDTA, 1× LANCE Detection Buffer, 0.5 nM Detection antibody) was added and incubated for 1 h prior to detection with excitation and emission at 320 and 665 nm (Tecan Spark® TR-FRET mode Tecan).
# Inhibition rate (IR) of the tested compounds was determined by the following formula: IR (%)=(average High control−compound well)/(average High control−average Low control)*100%. Fit the compound IC50 from non-linear regression equation: Y=Bottom+(Top−Bottom)/(1+10^((Log IC50−X)*HillSlope)). X: Log of cpd concentration; Y: Inhibition rate (TR); Top and Bottom: Plateaus in same units as Y, log IC50: same log units as X; HillSlope: Slope factor or Hill slope.
row,SMILES,IC50
1,COC[C@@H]1C[C@H]1C(=O)Nc1cc([C@H]2CC[C@@H](OC(=O)NC(C)C)C2)[nH]n1 [Compound 28],110 nM
2,CC(C)NC(=O)OC1COC(c2cc(NC(=O)Cc3ccccc3C(F)(F)F)n[nH]2)C1 (stereo not shown) [Compound 64],16.6 nM
3,C#C[C@H]1C[C@@H]1C(=O)Nc1cc([C@H]2CC[C@@H](OC(=O)NC34CC(F)(C3)C4)C2)[nH]n1 [Compound 194],0.7 nM
4,COCc1cc(C(=O)Nc2cc([C@@H]3C[C@H](OC(=O)NC(C)C)[C@@H]4C[C@@H]43)[nH]n2)n(C)n1 [Compound 9],1000 nM
5,CC(C)NC(=O)OC1COC(c2cc(NC(=O)c3ccnn3C)n[nH]2)C1 (stereo not shown) [Compound 26],3.7 nM
6,"CC(C)NC(=O)O[C@@H]1CC[C@H](c2cc(NC(=O)C3CC3c3cnnn3C)n[nH]2)C1 (single isomer, unassigned) [Compound 154]",2.6 nM
7,"CC(C)NC(=O)O[C@@H]1CC[C@H](c2cc(NC(=O)C3CC(C)N(S(C)(=O)=O)C3)n[nH]2)C1 (single isomer, unassigned) [Compound 144]",4.3 nM
8,"CC(C)NC(=O)O[C@H]1CC[C@@H](c2cc(NC(=O)C3CC3C#N)n[nH]2)C1 (single isomer, unassigned) [Compound 193]",0.6 nM
9,CCC1(NC(=O)O[C@@H]2CO[C@H](c3cc(NC(=O)c4ccnn4C)n[nH]3)C2)CC1 [Compound 204],1 nM
10,CC(C)NC(=O)OC1COC(c2cc(NC(=O)Cc3ccc(C(F)(F)F)cc3)n[nH]2)C1 (stereo not shown) [Compound 62],2.3 nM
11,Cc1c(C2CC2C(=O)Nc2cc([C@H]3CC[C@@H](OC(=O)NC4(C)CCC4)C3)[nH]n2)cnn1C (stereo partly shown) [Compound 217],29.7 nM
12,CC(C)NC(=O)O[C@@H]1CC[C@H](c2cc(NC(=O)C3CC3C#N)n[nH]2)C1 (stereo partly shown) [Compound 87],3.6 nM
13,Cc1c([C@@H]2C[C@H]2C(=O)Nc2cc([C@H]3CC[C@@H](OC(=O)NC4(C)CCC4)C3)[nH]n2)cnn1C [Compound 218],0.6 nM
14,Cn1nccc1C(=O)Nc1cc([C@@H]2C[C@H](OC(=O)NC3(C)CC3)CO2)[nH]n1 [Compound 95],3.7 nM
15,C#C[C@H]1C[C@@H]1C(=O)Nc1cc([C@H]2CC[C@@H](OC(=O)NC3(C)CC3)C2)[nH]n1 [Compound 141],0.5 nM
16,CC(C)NC(=O)O[C@H]1CO[C@@H](c2cc(NC(=O)Cc3ccccc3S(C)(=O)=O)n[nH]2)C1 [Compound 134],2.2 nM
17,Cc1cc(C(=O)Nc2cc([C@H]3C[C@@H](OC(=O)NC(C)C)CO3)[nH]n2)n(C)n1 [Compound 90],5.7 nM
18,COCc1cc(C(=O)Nc2cc([C@H]3C[C@@H]4[C@H](C3)[C@H]4C(=O)NC(C)(C)C)[nH]n2)n(C)n1 [Compound 98],18.8 nM
19,CC(C)NC(=O)O[C@@H]1CC[C@H](c2cc(NC(=O)[C@H]3CCN(C(=O)C(C)C)C3)n[nH]2)C1 [Compound 14],1.7 nM
20,C#C[C@H]1C[C@@H]1C(=O)Nc1cc([C@H]2C[C@@H](OC(=O)NC3(C)CC3)CO2)[nH]n1 [Compound 170],0.8 nM

row,SMILES,IC50
1,CC(C)NC(=O)O[C@@H]1CC[C@H](c2cc(NC(=O)C3[C@H]4COC[C@@H]34)n[nH]2)C1 (stereo partly shown) [Compound 115],54.5 nM
2,C#C[C@H]1C[C@@H]1C(=O)Nc1cc([C@H]2C[C@@H](OC(=O)N[C@@H](C)CC)CO2)[nH]n1 [Compound 155],4.5 nM
3,CC(C)NC(=O)O[C@@H]1CC[C@H](c2cc(NC(=O)[C@H]3CCN(S(C)(=O)=O)C3)n[nH]2)C1 [Compound 7],2.4 nM
4,CC(C)NC(=O)O[C@H]1CO[C@@H](c2cc(NC(=O)c3cc(C(F)F)nn3C)n[nH]2)C1 [Compound 111],4.1 nM
5,CC(C)NC(=O)O[C@@H]1CC[C@H](c2cc(NC(=O)[C@H]3C[C@@H]3COC(F)F)n[nH]2)C1 [Compound 105],1.1 nM
6,CC(C)NC(=O)O[C@@H]1CC[C@H](c2cc(NC(=O)[C@H]3CCN(CC(F)F)C3)n[nH]2)C1 [Compound 13],5.8 nM
7,CC1(NC(=O)O[C@@H]2CC[C@H](c3cc(NC(=O)[C@@H]4CCN(S(=O)(=O)C5CC5)C4)n[nH]3)C2)CC1 [Compound 140],0.7 nM
8,CC(C)NC(=O)O[C@@H]1CO[C@H](c2cc(NC(=O)c3ccnn3CC(F)F)n[nH]2)C1 [Compound 93],5.2 nM
9,CC(C)NC(=O)O[C@@H]1CC[C@H](c2cc(NC(=O)[C@H]3C[C@@H]3CC#N)n[nH]2)C1 [Compound 56],4 nM
10,COC[C@H]1C[C@@H]1C(=O)Nc1cc([C@H]2CC[C@@H](OC(N)=O)C2)[nH]n1 [Compound 40],47.7 nM
11,CO[C@H]1C[C@H](C(=O)Nc2cc([C@H]3CC[C@@H](OC(=O)NC(C)C)C3)[nH]n2)C1 [Compound 68],8 nM
12,Cn1nccc1C(=O)Nc1cc([C@H]2C[C@@H](OC(=O)NC3(C)CCC3)CO2)[nH]n1 [Compound 138],1 nM
13,Cn1nccc1C(=O)Nc1cc([C@H]2C[C@@H](OC(=O)NC3(CF)CCC3)CO2)[nH]n1 [Compound 211],1.4 nM
14,COCc1cc(C(=O)Nc2cc([C@H]3CC[C@@H](OC(=O)N[C@H]4C[C@@]5(CCOC5)C4)C3)[nH]n2)n(C)n1 [Compound 201],4.6 nM
15,COCc1cc(C(=O)Nc2cc([C@H]3C[C@@H]4[C@H](C3)[C@H]4C(=O)NC(C)C)[nH]n2)n(C)n1 [Compound 69],18.8 nM
16,CC(C)NC(=O)O[C@@H]1CC[C@H](c2cc(NC(=O)[C@H]3CCN(C(=O)C(C)C)C3)n[nH]2)C1 [Compound 31],8.1 nM
17,CC(C)NC(=O)O[C@@H]1CC[C@H](c2cc(NC(=O)C3CCCC3)n[nH]2)C1 [Compound 37],2.9 nM
18,CC(C)NC(=O)O[C@@H]1CC[C@H](c2cc(NC(=O)C3CCN(S(C)(=O)=O)CC3)n[nH]2)C1 [Compound 8],11.3 nM
19,CC(C)NC(=O)O[C@@H]1CC[C@H](c2cc(NC(=O)[C@H]3CCCN(S(C)(=O)=O)C3)n[nH]2)C1 [Compound 76],22.7 nM
20,"Cc1c(C2CC2C(=O)Nc2cc([C@H]3CC[C@@H](OC(=O)NC4(C)CC4)C3)[nH]n2)cnn1C (single isomer, unassigned) [Compound 205]",24 nM

row,SMILES,IC50
1,CC(C)NC(=O)O[C@@H]1CC[C@H](c2cc(NC(=O)[C@@H]3C[C@@H](C)N(S(C)(=O)=O)C3)n[nH]2)C1 [Compound 127],3.6 nM
2,"COCC1CC(C(=O)Nc2cc([C@H]3CC[C@@H](OC(=O)NC(C)C)C3)[nH]n2)C1 (single isomer, unassigned) [Compound 149]",13.4 nM
3,"COC[C@H]1C[C@@H]1C(=O)Nc1cc([C@H]2CC[C@@H](OC(=O)NC(C)C(F)F)C2)[nH]n1 (single isomer, unassigned) [Compound 107]",3 nM
4,Cc1occc1C(=O)Nc1cc([C@H]2C[C@@H](OC(=O)NC(C)C)CO2)[nH]n1 [Compound 129],11.8 nM
5,"COC(C)[C@H]1C[C@@H]1C(=O)Nc1cc([C@H]2CC[C@@H](OC(=O)NC3(C)CC3)C2)[nH]n1 (single isomer, unassigned) [Compound 221]",0.8 nM
6,Cn1nccc1C(=O)Nc1cc([C@H]2C[C@@H](OC(=O)NC3(C)CC3)CO2)[nH]n1 [Compound 94],1.3 nM
7,"Cc1cc(CC(=O)Nc2cc([C@H]3CC[C@@H](OC(=O)NC4COC5(CCC5)C4)C3)[nH]n2)on1 (single isomer, unassigned) [Compound 39]",4 nM
8,C#C[C@H]1C[C@@H]1C(=O)Nc1cc([C@@H]2C[C@H](OC(=O)NC(C)(C)C)CO2)[nH]n1 [Compound 167],1.4 nM
9,CC(C)NC(=O)O[C@@H]1CC[C@H](c2cc(NC(=O)[C@@H]3CCN(S(=O)(=O)C(C)C)C3)n[nH]2)C1 [Compound 58],4.1 nM
10,CC(C)NC(=O)O[C@H]1CO[C@@H](c2cc(NC(=O)c3cc(C4CC4)nn3C)n[nH]2)C1 [Compound 80],15.4 nM
11,COCc1cc(C(=O)Nc2n[nH]c([C@H]3CC[C@@H](OC(=O)NC(C)C)C3)c2F)n(C)n1 [Compound 10],92.4 nM
12,"CC(C)NC(=O)O[C@@H]1CC[C@H](c2cc(NC(=O)C3CC4CCC3O4)n[nH]2)C1 (single isomer, unassigned) [Compound 152]",85.5 nM
13,"CC(C)(C)NC(=O)O[C@@H]1CC[C@H](c2cc(NC(=O)C3CC3C#N)n[nH]2)C1 (single isomer, unassigned) [Compound 188]",0.6 nM
14,"CC1(NC(=O)O[C@@H]2CC[C@H](c3cc(NC(=O)C4CC4C#N)n[nH]3)C2)CC1 (single isomer, unassigned) [Compound 212]",2.1 nM
15,C#C[C@H]1C[C@@H]1C(=O)Nc1cc([C@H]2C[C@@H](OC(=O)NC3(C)CCC3)CO2)[nH]n1 [Compound 158],1.1 nM
16,Cc1c(C2CC2C(=O)Nc2cc([C@H]3CC[C@@H](OC(=O)NC(C)C)C3)[nH]n2)cnn1C (stereo partly shown) [Compound 162],109 nM
17,"CC[C@H](C)NC(=O)O[C@@H]1CC[C@H](c2cc(NC(=O)C3CC3C#N)n[nH]2)C1 (single isomer, unassigned) [Compound 200]",0.9 nM
18,C#C[C@H]1C[C@@H]1C(=O)Nc1cc([C@@H]2CC[C@H](OC(=O)NC(C)C)C2)[nH]n1 [Compound 145],0.9 nM
